{"source": "patent US20150065556A1", "about": "“THERAPEUTIC TARGETS FOR MITOCHONDRIAL DISORDERS” (Whitehead Institute for Biomedical Research, priority 2013, published 2015)", "type_in_all_cases": "cell-based, human", "key": {"KBM7 cells [1]": {"system": "KBM7 cells", "assay": "Cellular ATP (CellTiterGlo) in WT and ATPIF1 KO KBM7 cells", "details": "oligomycin added to antimycin", "procedure": "Equal numbers of cells were plated and ATP was determined using a CellTiterGlo assay (Promega) according to the manufacturer's instructions."}, "KBM7 cells [2]": {"system": "KBM7 cells", "assay": "Mitochondrial membrane potential (TMRM staining, FACS) in WT and ATPIF1 KO KBM7 cells", "procedure": "Membrane potential was assessed using tetramethyl rhodamine methyl ester (TMRM). For the TMRM time course: 200,000 cells were used for each time point. Cells were treated with 121 uM antimycin and incubated in 25 nM TMRM (final concentration) in IMDM 20 minutes from the end of their time point at 37° C. and then analyzed by FACS analysis. Dead cells were excluded using 7-AAD.\n(§1) 200,000 cells were stained with 25 nM TMRM dye (Invitrogen) in parent media of cells. In the case of adherent cells, 10 uM verapamil (Sigma-Aldrich) was added to help retention of the dye. For suspension cells, the incubation of the dye was done for 30 minutes at 37° C., whereas for adherent cells, the incubation was done for 1 hour at 37° C. Suspension cells were kept on ice, then spun at 4000 rpm for 5 minutes at 4° C. in a table-top microcentrifuge, supernatant aspirated, cells washed once with ice-cold PBS, resuspended in ice-cold PBS with 2 ug/mL 7-AAD viability dye, incubated for 5 minutes on ice, and analyzed by FACS. Only 7-AAD negative live cells were analyzed. Adherent cells were first trypsinized, kept on ice, spun at 4000 rpm for 5 minutes at 4° C. in a table-top microcentrifuge, supernatant aspirated, cells washed once with ice-cold PBS, resuspended in ice-cold PBS with 2 ug/mL 7-AAD viability dye, incubated for 5 minutes on ice, and analyzed by FACS. Only 7-AAD negative live cells were analyzed.\nFACS assays. For measurements of ΔΨm, 100,000 cells were incubated with TMRM (25 nM) and the indicated amounts of drugs for the indicated amounts of time before collection. For measurements of mitochondrial mass, 100,000 cells were incubated with MitoTracker Green FM (50 nM) for one hour. For primary hepatocytes, cells were assayed in suspension immediately after harvest from the liver and incubated with verapamil (20 μM) to facilitate retention of TMRM and MitoTracker Green FM signals. Afterwards, cells were collected by centrifugation, washed once with PBS, and resuspended in PBS with 7-AAD (2 μg/mL) for analysis. KBM7 cells and primary hepatocytes were centrifuged at 2000 rpm for 5 minutes and 500 rpm for 5 minutes at 4° C., respectively."}, "COX1 mutant cells": {"system": "COX1 mutant cells", "assay": "MMP and viability of cybrid cells with mtDNA from a patient with a deficiency in COX1", "details": "FIG. 7E", "procedure": "as §1\n(§2) Suspension cells were kept on ice, then spun at 4000 rpm for 5 minutes at 4° C. in a table-top microcentrifuge, supernatant aspirated, cells washed once with ice-cold PBS, resuspended in ice-cold PBS with 2 ug/mL 7-AAD viability dye, incubated for 5 minutes on ice, and analyzed by FACS. […] Viability was assessed by 7-AAD exclusion. […]"}, "[3]": {"system": "cybrid cells having mtDNA derived from a normal (WT) subject", "assay": "MMP and viability of cybrid cells with mtDNA from a normal (WT) subject", "details": "FIG. 7E", "procedure": "as §1, §2"}, "KBM7 cells [4]": {"system": "KBM7 cells", "assay": "Viability/proliferation of wild type and ATPIF1 null KBM7 cells treated with mitochondrial poisons (7-AAD, FACS)", "details": "oligomycin added to antimycin; 7-AAD; FIG. 7D", "source_text": "In order to identify potential drug targets for treatment of mitochondrial disorders, we decided to use inhibitors of oxidative phosphorylation (OXPHOS) to model mitochondrial diseases and search for genes, loss-of-function of which can confer resistance to mitochondrial dysfunction caused by the poison. To that end, we explored use of a screening platform based on gene inactivation in human cells using insertional mutagenesis that has recently been developed using the KBM7 CML cell line, which is haploid for all chromosomes except chromosome 8 (5). In this system, insertional mutagenesis is accomplished using a gene trap vector. […]\nFor the viability assays described in this Example and Example 2, 200,000 cells were used for each sample. Cells were treated with the desired concentration of drug and viability was assessed four days later using 7-AAD and FACS analysis.\nSuspension cells were kept on ice, then spun at 4000 rpm for 5 minutes at 4° C. in a table-top microcentrifuge, supernatant aspirated, cells washed once with ice-cold PBS, resuspended in ice-cold PBS with 2 ug/mL 7-AAD viability dye, incubated for 5 minutes on ice, and analyzed by FACS. For adherent cells, the overlying media and PBS used for pre-trypsinization washes was collected and combined with the suspension of trypsinized cells to gather any dead cells that may have detached into the media. The cell suspensions were kept on ice, spun at 1500 rpm for 5 minutes at 4° C. in a swinging bucket centrifuge, supernatant aspirated, cells washed once with ice-cold PBS, resuspended in ice-cold PBS with 2 ug/mL 7-AAD viability dye, incubated for 5 minutes on ice, and analyzed by FACS. Viability was assessed by 7-AAD exclusion. For HeLa, SH-SY5Y, and Malme-3M cells, 500-2,000 cells were seeded per well of white, clear-bottom 96-well plates (Greiner Bio-One), treated with drugs, and then analyzed using CellTiter-Glo according to the manufacturer's instructions (Promega). For primary hepatocytes, 100,000 cells were seeded per well of a 24-well TPP plate (Light Labs), treated with antimycin, and then analyzed using CellTiter-Glo."}}, "note": "Entries after “also recorded” stand apart in the source; their conditions may differ."}
{"smiles": "CC[C@H]1/C=C/C=C/C[C@@H](C)[C@H](O)[C@@](C)(O)C(=O)[C@@H](C)[C@H](O)[C@@H](C)C(=O)[C@@H](C)[C@H](O)[C@@H](C)/C=C/C(=O)O[C@@H]2[C@H](C)[C@H](CC1)O[C@]1(CC[C@H](C)[C@H](C[C@@H](C)O)O1)[C@H]2C", "note": "[oligomycin]", "values": [{"measurement": "ATP of antimycin-treated IF1 KO KBM7 cells on addition of oligomycin", "setting": "KBM7 cells [1]", "value": "completely prevents IF1 KO cells from rescuing their MMP and using ATP; also recorded: increased ATP levels"}, {"measurement": "rescue by loss of ATPIF1 of the loss of mitochondrial membrane potential caused by the poison", "setting": "KBM7 cells [2]; FIG. 4, TMRM", "value": "not rescued"}, {"measurement": "MMP (ΔΨm) of antimycin-treated IF1 KO KBM7 cells on addition of oligomycin", "setting": "KBM7 cells [2]; oligomycin added to antimycin", "value": "completely prevents IF1 KO cells from rescuing their MMP; also recorded: decreased ΔΨm"}, {"measurement": "MMP of cells having patient-derived (COX1 deficient) mtDNA", "setting": "COX1 mutant cells", "value": "dramatic decrease in MMP"}, {"measurement": "viability of cells having patient-derived (COX1 deficient) mtDNA", "setting": "COX1 mutant cells", "value": "kills the cells having patient-derived mtDNA"}, {"measurement": "MMP and viability of cells having mtDNA derived from healthy subjects (WT)", "setting": "[3]", "value": "not cells having mtDNA derived from healthy subjects"}, {"measurement": "survival of antimycin-treated IF1 KO KBM7 cells on addition of oligomycin", "setting": "KBM7 cells [4]", "value": "decreased survival"}]}
